In assay [1] the target is T1, Inositol 1,4,5-trisphosphate-gated calcium channel ITPR1 (Homo sapiens, UniProt Q14643). In words: Dissociation constant using IP3-binding domain (IBD) of human Type 1 inositol 1,4,5-trisphosphate receptor.
Assay [2] addresses T1, Inositol 1,4,5-trisphosphate-gated calcium channel ITPR1. Put plainly: Affinity towards IP3-binding domain (IBD) of human Type 1 inositol 1,4,5-trisphosphate receptor was determined relative to compound 2.

T1 sequence (Q14643 whole entry, the tested form may be a part): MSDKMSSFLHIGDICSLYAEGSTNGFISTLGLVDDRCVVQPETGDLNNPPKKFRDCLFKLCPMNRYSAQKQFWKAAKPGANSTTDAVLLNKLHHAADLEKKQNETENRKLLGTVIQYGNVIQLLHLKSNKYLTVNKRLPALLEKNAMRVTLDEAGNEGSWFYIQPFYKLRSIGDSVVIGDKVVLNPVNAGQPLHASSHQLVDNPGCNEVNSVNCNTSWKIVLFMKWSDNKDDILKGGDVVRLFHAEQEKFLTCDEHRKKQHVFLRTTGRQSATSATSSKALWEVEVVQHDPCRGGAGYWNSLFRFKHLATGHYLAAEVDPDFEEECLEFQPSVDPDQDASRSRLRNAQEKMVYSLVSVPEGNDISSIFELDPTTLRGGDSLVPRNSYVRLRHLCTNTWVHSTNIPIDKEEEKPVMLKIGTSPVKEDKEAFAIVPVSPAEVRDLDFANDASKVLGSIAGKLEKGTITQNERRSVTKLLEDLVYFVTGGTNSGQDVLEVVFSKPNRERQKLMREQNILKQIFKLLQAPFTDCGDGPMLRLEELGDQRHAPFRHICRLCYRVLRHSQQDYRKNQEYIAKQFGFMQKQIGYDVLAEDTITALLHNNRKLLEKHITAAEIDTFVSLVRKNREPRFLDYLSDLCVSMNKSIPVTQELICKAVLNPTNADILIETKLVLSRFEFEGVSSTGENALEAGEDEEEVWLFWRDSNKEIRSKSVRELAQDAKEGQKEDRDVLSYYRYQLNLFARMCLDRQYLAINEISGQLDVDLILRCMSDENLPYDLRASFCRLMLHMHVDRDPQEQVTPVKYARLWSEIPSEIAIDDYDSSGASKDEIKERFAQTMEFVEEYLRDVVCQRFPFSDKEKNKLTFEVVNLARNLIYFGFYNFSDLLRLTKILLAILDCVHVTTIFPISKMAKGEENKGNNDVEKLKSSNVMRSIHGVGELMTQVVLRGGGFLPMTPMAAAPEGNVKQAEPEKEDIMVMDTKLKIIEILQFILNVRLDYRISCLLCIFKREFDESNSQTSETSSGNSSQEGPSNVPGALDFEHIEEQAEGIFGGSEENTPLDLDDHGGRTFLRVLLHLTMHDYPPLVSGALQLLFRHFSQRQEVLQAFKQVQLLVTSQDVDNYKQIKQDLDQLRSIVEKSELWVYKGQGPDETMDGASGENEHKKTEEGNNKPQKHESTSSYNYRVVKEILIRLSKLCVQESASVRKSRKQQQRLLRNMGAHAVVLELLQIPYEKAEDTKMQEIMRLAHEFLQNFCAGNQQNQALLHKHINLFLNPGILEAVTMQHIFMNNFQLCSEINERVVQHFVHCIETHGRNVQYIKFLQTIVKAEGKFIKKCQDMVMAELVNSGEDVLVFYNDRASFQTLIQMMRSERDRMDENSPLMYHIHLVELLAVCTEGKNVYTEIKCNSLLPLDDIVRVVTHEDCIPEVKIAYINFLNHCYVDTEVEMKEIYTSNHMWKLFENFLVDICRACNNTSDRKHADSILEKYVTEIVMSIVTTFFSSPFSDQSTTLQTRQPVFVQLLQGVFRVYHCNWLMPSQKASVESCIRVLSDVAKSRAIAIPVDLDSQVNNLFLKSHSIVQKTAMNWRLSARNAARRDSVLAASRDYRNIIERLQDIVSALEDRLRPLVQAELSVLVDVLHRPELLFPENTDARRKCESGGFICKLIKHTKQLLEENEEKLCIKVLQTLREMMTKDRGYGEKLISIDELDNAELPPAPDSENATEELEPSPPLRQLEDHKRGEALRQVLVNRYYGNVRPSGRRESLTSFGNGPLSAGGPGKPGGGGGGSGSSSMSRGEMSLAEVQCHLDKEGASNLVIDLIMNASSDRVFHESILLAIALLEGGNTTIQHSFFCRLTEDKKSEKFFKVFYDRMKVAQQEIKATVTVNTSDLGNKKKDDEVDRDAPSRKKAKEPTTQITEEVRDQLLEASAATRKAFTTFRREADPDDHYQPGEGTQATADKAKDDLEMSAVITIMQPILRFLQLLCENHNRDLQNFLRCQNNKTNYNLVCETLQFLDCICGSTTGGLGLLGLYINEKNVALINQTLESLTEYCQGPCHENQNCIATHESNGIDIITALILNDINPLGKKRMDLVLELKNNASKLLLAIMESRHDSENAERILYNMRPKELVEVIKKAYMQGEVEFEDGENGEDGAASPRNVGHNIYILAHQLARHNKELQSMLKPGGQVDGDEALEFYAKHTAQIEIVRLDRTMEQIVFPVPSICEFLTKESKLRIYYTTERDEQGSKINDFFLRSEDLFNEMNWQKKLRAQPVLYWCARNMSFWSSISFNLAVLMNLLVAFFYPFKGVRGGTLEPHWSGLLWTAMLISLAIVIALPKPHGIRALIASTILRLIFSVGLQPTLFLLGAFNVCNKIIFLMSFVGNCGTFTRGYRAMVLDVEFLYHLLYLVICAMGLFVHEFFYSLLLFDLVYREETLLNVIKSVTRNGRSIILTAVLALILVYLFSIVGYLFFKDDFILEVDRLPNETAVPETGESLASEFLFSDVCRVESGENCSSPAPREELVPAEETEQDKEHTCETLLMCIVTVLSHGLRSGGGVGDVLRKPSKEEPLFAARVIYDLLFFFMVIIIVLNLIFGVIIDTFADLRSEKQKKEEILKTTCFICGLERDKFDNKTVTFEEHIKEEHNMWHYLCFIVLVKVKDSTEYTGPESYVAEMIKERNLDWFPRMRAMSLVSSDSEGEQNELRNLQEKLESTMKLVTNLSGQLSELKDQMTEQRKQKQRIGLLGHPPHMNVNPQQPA

As to `CN(C)c1ccc2c(-c3ccc(C(=O)NCCCOP(=O)(O)O[C@@H]4[C@H](O)[C@H](O)[C@@H](OP(=O)(O)O)[C@H](OP(=O)(O)O)[C@H]4O)cc3C(=O)[O-])c3ccc(=[N+](C)C)cc-3oc2c1`, the Kd in assay [1] stood at 620 nM. Besides, the Relative affinity in assay [2] worked out at 2.4.
As for `CN(C)c1ccc(C(=C2C=CC(=[N+](C)C)C=C2)c2ccc(C(=O)NCCCOP(=O)(O)O[C@@H]3[C@H](O)[C@H](O)[C@@H](OP(=O)(O)O)[C@H](OP(=O)(O)O)[C@H]3O)cc2)cc1`, the Relative affinity in assay [2] is 950.
Consider `NCCCOP(=O)(O)O[C@@H]1[C@H](O)[C@H](O)[C@@H](OP(=O)(O)O)[C@H](OP(=O)(O)O)[C@H]1O`, for which the equilibrium dissociation constant (Kd) in assay [1] was 1500 nM. Also, in assay [2], the Relative affinity amounted to 1.

Values taken from ChEMBL document CHEMBL1135875, “Hydrophobic modifications at 1-phosphate of inositol 1,4,5-trisphosphate analogues enhance receptor binding” (Bioorg Med Chem Lett, 2002).
